Measurements taken from patent US7109364B2, “Group of anti-cancer compounds with specific structure and their production method” (priority 2000, dated 2006).
Converted amounts (≈) assume the structure as drawn. Like-named read-outs stand apart in the source and are kept apart here.

Key:
[1] = tested on: K562 human leukemia cell line; assay: In vitro anti-cancer efficacy, K562, trypan blue dye exclusion, 48 hours; format: cell-based; conditions: for IC50 / IC90: Homo sapiens, K562; for IC50: read-out: K562 IC50; for IC90: read-out: K562 IC90
Protocol: (§1) The above compounds were dissolved in DMSO at stock concentration of 10 mg/ml and stored at 4° C. Before each experiment they were diluted to desired concentration with serum-free RPMI 1640 medium
1. K562 human leukemia cell line: K562 cells were maintained in RPMI 1640 medium with 5% fetal bovine serum at 37° C. under 5% CO2 atmosphere. 4×10^4 cells/well were plated on 96-well plate. After treatment with the test compounds and solvent control (DMSO) for 48 hours, numbers of live cells were counted by trypan blue dye exclusion.
(§2) Reagents and Methods: same as in Experiment 1.

[2] = tested on: B16 mouse melanoma cell line; assay: In vitro anti-cancer efficacy, B16, SRB method, 48 hours; format: cell-based; conditions: for IC50 / IC90: Mus musculus; for IC50: read-out: B16 IC50; for IC90: read-out: B16 IC90
Protocol: as §1
2. B16 mouse melanoma cell line: B16 cells were maintained under the same condition as above. 2×10^4 cells/well were plated on 48-well plate and left for 12 hours for attachment. Cells were then treated with the test compounds and solvent control for 48 hours. Numbers of live cells were determined by SRB method. Briefly, cells were fixed with 50 μl/well 15% TCA for 1 hour, and then washed three times with double-distilled water. After drying 50 μl/well 1% SRB dye was added and reacted for 10 minutes. Plate was washed with 1% acetic acid. 0.2 ml Tris buffer (pH 9.6) was added and OD510 was recorded.
as §2

HAC cells = format: in vivo; conditions: for Body Weight after treatment / Extension Rate (of life span) / Survival Time: test 0.4 g/kg i.g. daily till death, 5-FU 25 mg/kg i.g. day 1, 3, 5
Protocol: 30 female ICR strain mice, weighing 18–21 g, were randomly divided into 3 groups of 10 each. 0.2 ml of HAC cell suspension (10^7 cells/ml) was injected intraperitoneally (i.p.) into all animals. The test group was given 2-(12-Methyl-tridecyl)-5-mercapto-1,3,4-thiadiazole at 0.4 g/kg i.g. daily till death. The positive control group was given 5-Flurouracil (5-Fu) i.g. at 25 mg/kg on day 1, 3, and 5. The negative control group was given N.S. at 20 ml/kg daily as in test groups. The length of survival of each group was recorded and rate of extension of life span was calculated and subject to t test.

[3] = tested on: human breast carcinoma MCF7ras; format: in vivo
Protocol: Thirty female Balb/c-nu/nu athymic mice, 6 weeks old, weighing 18–22 g, were housed in specific pathogen free (SPF) condition throughout the course of the experiment.
Subcutaneous transplantation of human breast carcinoma MCF7ras was carried out under aseptic condition. Tumor mass was cut into fragments (approximately 0.18×0.18×0.20 mm in size), and injected s.c. into the right mammary fat pad of each animal with a trocar. The mice were randomized into control and test groups of ten mice each. The day after transplantation, the mice in the test group were given through gavage 13-methyl-2-tetradecenoic acid at 400 mg/kg daily. The mice in two control groups were administered with CTX at 25 mg/kg and N.S. at 0.2 ml/10 g. All animals were sacrificed on day 23. The body weights and tumor weights were measured. The tumor inhibition rates (TIR) were determined by comparing the mean tumor weight of the test groups (T) with that of the control group (C) and expressed as a (C-T)/C percentage, and were analyzed by Student's test for statistical significance.

[4] = tested on: Mouse cervical carcinoma U14; assay: In vivo anti-cancer efficacy, solid tumor model
Description: Mouse cervical carcinoma U14 model was used to compare in vivo anti-cancer efficacy of 15-methyl-2-hexadecenoic acid, 13-methyl-tetradecanoic acid and the chemotherapy drug cytoxan (CTX).
40 male ICR strain mice, weighing 19–22 g, were randomly divided into 4 groups of 10 each. U14 cervical carcinoma mass (about 2 mm^3 each) was transplanted subcutaneously into the right armpits of all animals following standard procedure. The test group was given 15-methyl-2-hexadecenoic acid and 13-methyl-tetradecanoic acid at 0.4 g/kg, respectively, intragastrically (i.g.) daily for 11 days. The positive control group was given a single dose of CTX i.g. (25 mg/kg) on day 1. Negative control group was given normal saline (N.S.) at 0.2 ml/10 g daily for 11 days. On the 12th day, all mice were sacrificed and the tumors were isolated and weighed. The tumor inhibition rate (TIR) was calculated and subject to t test.

[5] = Table 2, unit inferred, methods same as in Experiment 1

Row | IC50 ([1]; Table 1, 48 hours) [µg/mL] | IC90 ([1]; Table 1, 48 hours) [µg/mL] | IC50 ([2]; Table 1, 48 hours) [µg/mL] | IC90 ([2]; Table 1, 48 hours) [µg/mL] | SMILES | also measured
1 |  |  |  |  | CC(C)CCCCCCCCCCCc1nnc(S)s1 [Compound 30, 2-(12-Methyl-tridecyl)-5-mercapto-1,3,4-thiadazole] | K562 IC50 ([1]; Table 1, 48 hours): 6.10 µg/mL; K562 IC90 ([1]; Table 1, 48 hours): 8.75 µg/mL; B16 IC50 ([2]; Table 1, 48 hours): 5.16 µg/mL; B16 IC90 ([2]; Table 1, 48 hours): 8.05 µg/mL; Body Weight before treatment (HAC cells; HAC mice, X ± SD): 19.6 ± 1.3 g; Body Weight after treatment (HAC cells; HAC mice): 46.5 ± 6.1 g; Extension Rate (of life span) (HAC cells; HAC mice): 72.2%; Survival Time (HAC cells; HAC mice, X ± SD): 16.7 ± 1.8 days
2 | 15.9 (≈ 51 µM) | 20.4 (≈ 65.5 µM) | 11.9 (≈ 38.2 µM) | 19.2 (≈ 61.6 µM) | CC(C)CCCCCCCCCCCC(=O)N1CCOCC1 [Compound 16, N-(13-Methyl-tetradecanoyl)morpholine] | 
3 | 14.7 (≈ 49.1 µM) | 21.9 (≈ 73.1 µM) | 12.8 (≈ 42.7 µM) | 20.1 (≈ 67.1 µM) | CC(C)CCCCCCCCCCCC(=O)NCC(=O)O [Compound 3, N-(13-methyl-tetradecanoyl)glycine] | 
4 |  |  |  |  | CC(C)CCCCCCCCCCC(=O)c1ccc(O)cc1O [Compound 18, (2,4,-dihydroxy phenyl)-12-methyl tridecanone] | K562 IC50 ([1]; Table 1, 48 hours): 6.42 µg/mL; K562 IC90 ([1]; Table 1, 48 hours): 8.90 µg/mL; B16 IC50 ([2]; Table 1, 48 hours): 5.91 µg/mL; B16 IC90 ([2]; Table 1, 48 hours): 8.12 µg/mL
5 | 18.4 (≈ 59.4 µM) | 38.5 (≈ 124 µM) | 17.2 (≈ 55.6 µM) | 33.7 (≈ 109 µM) | CC(C)CCCCCCCCCCCC(=O)N1CCCCC1 [Compound 14, N-(13-Methyltetradecanoyl)piperidine] | 
6 | 16.2 (≈ 54.8 µM) | 25 (≈ 84.6 µM) | 13.1 (≈ 44.3 µM) | 17.3 (≈ 58.5 µM) | CC(C)CCCCCCCCCCCC(=O)N1CCCC1 [Compound 15, N-(13-Methyl-tetradecanoyl)pyrrolidine] | 
7 | 19.7 (≈ 76.5 µM) | 28.6 (≈ 111 µM) | 17.4 (≈ 67.6 µM) | 25.3 (≈ 98.3 µM) | CC(C)CCCCCCCCCCC(N)C(=O)O (stereo not shown) [Compound 28, 2-Amino-13-methyl-tetradecanoic acid] | 
8 |  |  |  |  | CCC(C)CCCCCCCCCCCc1ccc(O)cc1O (stereo not shown) [Compound 23, (12-Methyl tetradecyl)-2,4-dihydroxy phene] | K562 IC50 ([1]; Table 1, 48 hours): 9.51 µg/mL; K562 IC90 ([1]; Table 1, 48 hours): 14.6 µg/mL; B16 IC50 ([2]; Table 1, 48 hours): 8.81 µg/mL; B16 IC90 ([2]; Table 1, 48 hours): 13.8 µg/mL
9 |  |  |  |  | CC(C)CC=CCCCCC(=O)O [9-methyl-6-decenoic acid] | IC50 [1, 5]: 50.8 µg/mL (≈ 276 µM); IC90 [1, 5]: 83 µg/mL (≈ 450 µM); IC50 [2, 5]: 90 µg/mL (≈ 488 µM); IC90 [2, 5]: 269 µg/mL (≈ 1460 µM)
10 |  |  |  |  | CC(C)CCCCCCCCCC=CC(=O)O [13-methyl-2-tetradecenoic acid] | Body weight D1 ([3]; MCF7ras nude mice, day 1 (baseline), X ± SD): 20.3 ± 0.5 g; Body weight D23 ([3]; MCF7ras nude mice, day 23, test 400 mg/kg gavage daily, CTX 25 mg/kg): 24.4 ± 1.1 g; TIR (tumor inhibition rate, (C-T)/C percentage) ([3]; day 23, test 400 mg/kg gavage daily, CTX 25 mg/kg): 74.3%; Tumor W. ([3]; day 23, test 400 mg/kg gavage daily, CTX 25 mg/kg, X ± SD): 0.47 ± 0.31 g
11 | 9.1 (≈ 30.6 µM) | 42.4 (≈ 143 µM) | 19.3 (≈ 64.9 µM) | 31.9 (≈ 107 µM) | CCN(CC)C(=O)CCCCCCCCCCCC(C)C [Compound 13, N,N-Diethyl-13-methyl-tetradecanamide] | 
12 | 10.3 (≈ 26.4 µM) | 19.6 (≈ 50.3 µM) | 13.4 (≈ 34.4 µM) | 20.5 (≈ 52.6 µM) | CC(C)CCCCCCCCCCCC(=O)N[C@@H](Cc1ccccc1)C(=O)O [Compound 5, N-(13-methyl-tetradecanoyl)-L-phenylalanine] | 
13 | 7.21 (≈ 22.4 µM) | 10.1 (≈ 31.4 µM) | 6.1 (≈ 19 µM) | 11.2 (≈ 34.9 µM) | CC(C)CCCCCCCCCCC(Br)C(=O)O (stereo not shown) [Compound 27, 2-Bromo-13-methyl-tetradecanoic acid] | 
14 | 6.31 (≈ 18.8 µM) | 11.5 (≈ 34.3 µM) | 5.75 (≈ 17.1 µM) | 10.6 (≈ 31.6 µM) | CC(C)CCCCCCCCCCCCNc1ccc(O)c(O)c1 [Compound 32, N-(13-Methyltetradecyl)-4-amino-1,2-benzenediol] | 
15 | 11.2 (≈ 35.7 µM) | 20.7 (≈ 66 µM) | 14.8 (≈ 47.2 µM) | 18.4 (≈ 58.7 µM) | CC(C)CCCCCCCCCCCC(=O)N[C@@H](C)C(=O)O [Compound 4, N-(13-methyl-tetradecanoyl)-L-alanine] | 
16 |  |  |  |  | CC(C)(C)CCCCCCCCCCCCc1ccc(O)cc1O [Compound 22, (13,13-Dimethyl tetradecyl)-2,4-dihydroxy phene] | K562 IC50 ([1]; Table 1, 48 hours): 3.92 µg/mL; K562 IC90 ([1]; Table 1, 48 hours): 5.36 µg/mL; B16 IC50 ([2]; Table 1, 48 hours): 3.63 µg/mL; B16 IC90 ([2]; Table 1, 48 hours): 5.42 µg/mL
17 |  |  |  |  | CC(C)CCCCCCCCCCCCc1ccc(O)c(O)c1O [Compound 24, (13-Methyl tetradecyl)-2,3,4-trihydroxy phene] | K562 IC50 ([1]; Table 1, 48 hours): 13.6 µg/mL; K562 IC90 ([1]; Table 1, 48 hours): 19.2 µg/mL; B16 IC50 ([2]; Table 1, 48 hours): 12.8 µg/mL; B16 IC90 ([2]; Table 1, 48 hours): 19.5 µg/mL
18 |  |  |  |  | CC(C)CCCCCCCCCCCC(=O)O [13-methyl-tetradecanoic acid] | TIR (tumor inhibition rate) ([4]; day 12, test compounds 0.4 g/kg i.g. daily 11 days, CTX 25 mg/kg i.g. single dose): 64.6%; Tumor W. ([4]; day 12, test compounds 0.4 g/kg i.g. daily 11 days, CTX 25 mg/kg i.g. single dose, ± SD): 0.93 ± 0.32 g; Body W. D1 ([4]; mouse, in vivo): 20.7 ± 0.7 g
19 |  |  |  |  | O=c1[nH]cc(F)c(=O)[nH]1 [Compound 5-FU, 5-Flurouracil, reference compound] | Body Weight after treatment (HAC cells; HAC mice): 43.4 ± 12.8 g; Extension Rate (of life span) (HAC cells; HAC mice): 47.4%; Survival Time (HAC cells; HAC mice, X ± SD): 14.3 ± 1.5 days; Body Weight before treatment (HAC cells; mouse, in vivo): 19.5 ± 1.2 g
